In EP0256125A1, “MEANS FOR PREVENTING MICROBIOLOGICAL OVERGROWING OF HARD SURFACE” (priority 1985, dated 1987):

Key:
[1] = Solubility in solvents (qualitative); details: for Löslichkeit im Alkohol: Alkohol (Ethylalkohol)
[2] = Storage stability (qualitative); assay type: physicochemical; details: result in words
[3] = test system: Acremonium corvum; assay: Fungicidal activity, inhibition of mycelium growth on wort agar; assay type: cell-based
Source text: (§1) Man prüfte die funguzide Aktivität von Zink-bis-(N-vi- nyloxyethyl)dithiocarbamat gegenüber den reinen Pilzkulturen: Gladosporium resinae, Cladosporium cladosporioides, Acremonium corvum, Acremonium charticola, Penicillium charlesii Smith, Walrotiela subiculesa, Geotrichum candidum Link, Oidium, Penicillium crysogenum. Die genannten Pilze wurden von den Oberflächen der Wände und Decken von Bierbrauereien und Werken für die Herstellung von alkoholfreien Getränken ausgeschieden.
(§2) […] In eine der Petri-Schalen wurde Nährboden mit 1 ml Azeton (Kontrolle) gegossen.
(§3) In 18 bis 20 Stunden nach dem Vergießen des Nährbodens in die Petri-Schalen führte man die Inokulation der reinen Pilzkultur durch, die vorher an einem Schräg-Würzeagar während 15 Tage gezüchtet wurden. Die Inkubation führte man bei einer Temperatur von 25 bis 27°C während 5 Tage durch. Danach wurde der Durchmesser der Pilzkolonien gemessen und der Prozentsatz der Hemmung des Wachstums des Myzeliums (S) nach der Abbott -Formel gezählt: [formula] worin dc Durchmesser der Pilzkolonien in Kontrolle ist, de =Durchmesser der Pilzkolonien in einer Schale mit dem Nährboden ist, der Zink-bis-(N-vinyloxyethyl)dithiocarbamat enthält.

[4] = test system: Cladosporium resinae; assay: as above; assay type: cell-based
Source text: as §1, §2, §3

[5] = test system: Acremonium charticola; assay: as above; assay type: cell-based
Source text: as §1, §2, §3

[6] = test system: Walrotiela subiculesa; assay: as above; assay type: cell-based
Source text: as §1, §2, §3

[7] = test system: Penicillium charlesii Smith; assay: as above; assay type: cell-based
Source text: as §1, §2, §3

[8] = test system: Cladosporium cladosporioides; assay: as above; assay type: cell-based
Source text: as §1, §2, §3

[9] = test system: Geotrichum candidum Link; assay: as above; assay type: cell-based
Source text: as §1, §2, §3

[10] = test system: Penicillium chrysogenum; assay: as above; assay type: cell-based
Source text: as §1, §2, §3

[11] = test system: p.Bacillus; assay: Bactericidal activity, growth on agar medium; assay type: cell-based; details: 37°C, 5 Tage
Protocol: (§4) Die bakterizide Aktivität des Kalium N-(vinyloxyethyl)-dithiocarbamats gegenüber den Bakterien, die von der Oberfläche von Wänden und Decken der Produktionsräume von Brauereien und Fabriken zur Herstellunq von alkoholfreien Getränken ausgeschieden wurden und die zu p.p.Bacillus, Micrococcus, Pseudomonas, Escherichiae gehören, wurde geprüft.
(§5) Es wurden wäßrige Lösungen des genannten Stoffes verschiedener Konzentration hergestellt, die so berechnet wurde, daß bei Einführung von 1 ml der Lösung in 25 ml geschmolzenen agarisierten Nährboden (45-50°C) die Konzentration des Stoffes im Nährboden von 0,003 bis 0,5% betrug. In 18 bis 24 Stunden wurde auf die Oberfläche des Nährbodens 0,1 ml der wäßrigen Suspension der eintägigen reinen Bakterienkulturen aufgetragen, die am Fleisch-Pepton-Agar gezüchtet wurden. Die Suspension wurde gleichmäßig verteilt. In Kontrollschalen wurden 0,1 ml Wasser auf der Oberfläche des Närhbodens verteilt.
(§6) Die Inkubation führte man bei einer Temperatur von 37°C während 5 Tage durch.
(§7) Die effektive Wirkung des Stoffes wurde nach dem Auftreten des Bakterienwachstums an der Oberfläche des Nährbodens bewertet.

[12] = test system: p.Pseudomonas; assay: Bactericidal activity, growth on agar medium; assay type: cell-based; details: 37°C, 5 Tage
Protocol: as §4, §5, §6, §7

[13] = test system: p. Escherichiae; assay: Bactericidal activity, growth on agar medium; assay type: cell-based; details: 37°C, 5 Tage
Protocol: as §4, §5, §6, §7

[14] = test system: p.Micrococcus; assay: Bactericidal activity, growth on agar medium; assay type: cell-based; details: 37°C, 5 Tage
Protocol: as §4, §5, §6, §7

[15] = test system: Schimmelpilzen, die die Bewachsung von Oberflächen hervorrufen; assay: Fungicidal activity, summary over all tested fungi; assay type: cell-based; details: day 5
Source text: as §1
Es wurden Lösungen des Zink-bis-(N-vinyloxyethyl)di- thiocarbamats im Azeton verschiedener Konzentration hergestellt, die so berechnet wurde, daß bei der Einführung vor 1 ml Lösung in 10 ml des geschmolzenen Würzeagars (45-50°C) die Konzentration des genannten Stoffes im Medium von 0,0015 bis 0,012% betrug. In eine der Petri-Schalen wurde Nährboden mit 1 ml Azeton (Kontrolle) gegossen.
as §3

[16] = test system: weißen Mäusen; assay: Acute toxicity in white mice; details: perorale Einführung bei weißen Mäusen
[17] = test system: Oidium; assay: Fungicidal activity, inhibition of mycelium growth on wort agar; assay type: cell-based
Source text: as §1, §2, §3

[18] = Konzentration des Stoffes 0,01 %
[19] = Konzentration des Stoffes 0,1 % (0,10)
[20] = Konzentration des Stoffes 0,02 %
[21] = Konzentration des Stoffes 0,05 %
[22] = Konzentration des Stoffes 0,005 %
[23] = Konzentration des Stoffes 0,0015 %
[24] = Konzentration des Stoffes 0,003 %
[25] = Konzentration des Stoffes 0,006 %
[26] = Konzentration des Stoffes 0,012 %

## Kupfer bis-(N-vinyloxyethyl) dithiocarbamat
[1]
  Löslichkeit im Alkohol: bearenzt löslich
  Löslichkeit im Azeton: bearenzt löslich
  Löslichkeit im Dimethylsulfoxid: gut löslich
  Löslichkeit in Wasser: bearenzt löslich
[1]; Diethylether
  Löslichkeit im Diethylether: nicht löslich
[2]
  Lagerbeständigkeit: lagerbeständig
[3]; [18]
  Hemmung des Myzeliums am 5. Tag des Wachstums, Acremonium corvum: 100%
[3]; [19]
  Hemmung des Myzeliums am 5. Tag des Wachstums, Acremonium corvum: 100%
[3]; [20]
  Hemmung des Myzeliums am 5. Tag des Wachstums, Acremonium corvum: 100%
[3]; [21]
  Hemmung des Myzeliums am 5. Tag des Wachstums, Acremonium corvum: 100%
[3]; [22]
  Hemmung des Myzeliums am 5. Tag des Wachstums, Acremonium corvum: 100%
[4]; [18]
  Hemmung des Myzeliums am 5. Tag des Wachstums, Cladosporium resinae: 34%
[4]; [19]
  Hemmung des Myzeliums am 5. Tag des Wachstums, Cladosporium resinae: 100%
[4]; [20]
  Hemmung des Myzeliums am 5. Tag des Wachstums, Cladosporium resinae: 80%
[4]; [21]
  Hemmung des Myzeliums am 5. Tag des Wachstums, Cladosporium resinae: 90%
[5]; [18]
  Hemmung des Myzeliums am 5. Tag des Wachstums, Acremonium charticola: 96%
[5]; [19]
  Hemmung des Myzeliums am 5. Tag des Wachstums, Acremonium charticola: 100%
[5]; [20]
  Hemmung des Myzeliums am 5. Tag des Wachstums, Acremonium charticola: 100%
[5]; [21]
  Hemmung des Myzeliums am 5. Tag des Wachstums, Acremonium charticola: 100%
[5]; [22]
  Hemmung des Myzeliums am 5. Tag des Wachstums, Acremonium charticola: 70%
[6]; [18]
  Hemmung des Myzeliums am 5. Tag des Wachstums, Walrotiela subiculesa: 0%
[6]; [19]
  Hemmung des Myzeliums am 5. Tag des Wachstums, Walrotiela subiculesa: 100%
[6]; [20]
  Hemmung des Myzeliums am 5. Tag des Wachstums, Walrotiela subiculesa: 10%
[6]; [21]
  Hemmung des Myzeliums am 5. Tag des Wachstums, Walrotiela subiculesa: 37%
[6]; [22]
  Hemmung des Myzeliums am 5. Tag des Wachstums, Walrotiela subiculesa: 0%
[7]; [18]
  Hemmung des Myzeliums am 5. Tag des Wachstums, Penicillium charlesii Smith: 30%
[7]; [19]
  Hemmung des Myzeliums am 5. Tag des Wachstums, Penicillium charlesii Smith: 100%
[7]; [20]
  Hemmung des Myzeliums am 5. Tag des Wachstums, Penicillium charlesii Smith: 80%
[7]; [21]
  Hemmung des Myzeliums am 5. Tag des Wachstums, Penicillium charlesii Smith: 100%
[7]; [22]
  Hemmung des Myzeliums am 5. Tag des Wachstums, Penicillium charlesii Smith: 15%
[8]; [18]
  Hemmung des Myzeliums am 5. Tag des Wachstums, Cladosporium cladosporioides: 36%
[8]; [19]
  Hemmung des Myzeliums am 5. Tag des Wachstums, Cladosporium cladosporioides: 100%
[8]; [20]
  Hemmung des Myzeliums am 5. Tag des Wachstums, Cladosporium cladosporioides: 65%
[8]; [21]
  Hemmung des Myzeliums am 5. Tag des Wachstums, Cladosporium cladosporioides: 80%
[8]; [22]
  Hemmung des Myzeliums am 5. Tag des Wachstums, Cladosporium cladosporioides: 15%
[9]; [18]
  Hemmung des Myzeliums am 5. Tag des Wachstums, Geotrichum candidum Link: 100%
[9]; [19]
  Hemmung des Myzeliums am 5. Tag des Wachstums, Geotrichum candidum Link: 100%
[9]; [20]
  Hemmung des Myzeliums am 5. Tag des Wachstums, Geotrichum candidum Link: 100%
[9]; [21]
  Hemmung des Myzeliums am 5. Tag des Wachstums, Geotrichum candidum Link: 100%
[9]; [22]
  Hemmung des Myzeliums am 5. Tag des Wachstums, Geotrichum candidum Link: 100%
[10]; [18]
  Hemmung des Myzeliums am 5. Tag des Wachstums, Penicillium chrysogenum: 25%
[10]; [19]
  Hemmung des Myzeliums am 5. Tag des Wachstums, Penicillium chrysogenum: 100%
[10]; [20]
  Hemmung des Myzeliums am 5. Tag des Wachstums, Penicillium chrysogenum: 36%
[10]; [21]
  Hemmung des Myzeliums am 5. Tag des Wachstums, Penicillium chrysogenum: 70%
[10]; [22]
  Hemmung des Myzeliums am 5. Tag des Wachstums, Penicillium chrysogenum: 10%
[11]
  Konzentration der Salze der N-(vinyloxyethyl)dithiocarbaminsäure (100%), die das Wachstum der Bakterien am 5. Tag des Wachstums hemmen, p.Bacillus: 0,15%
[12]
  Konzentration der Salze der N-(vinyloxyethyl)dithiocarbaminsäure (100%), die das Wachstum der Bakterien am 5. Tag des Wachstums hemmen, p.Pseudomonas: 0,15%
[13]
  Konzentration der Salze der N-(vinyloxyethyl)dithiocarbaminsäure (100%), die das Wachstum der Bakterien am 5. Tag des Wachstums hemmen, p. Escherichiae: 0,15%
[14]
  Konzentration der Salze der N-(vinyloxyethyl)dithiocarbaminsäure (100%), die das Wachstum der Bakterien am 5. Tag des Wachstums hemmen, p.Micrococcus: 0,15%
[15]
  Konzentration, bei der die Entwicklung aller untersuchten Pilze vollständig gehemmt wurde: 0,1%

## Zink-bis-(N-vinyloxyethyl)dithiocarbamat
[1]
  Löslichkeit im Alkohol: begrenzt
  Löslichkeit im Azeton: begrenzt
  Löslichkeit im Dimethylsulfoxid: gut
  Löslichkeit in Wasser: unlöslich
[16]
  LD50: 1120 + 260 mg/kg
[3]; [23]
  Hemmung des Myzeliums am 5. Tag des Wachstums, Acremonium corvum: 40%
[3]; [24]
  Hemmung des Myzeliums am 5. Tag des Wachstums, Acremonium corvum: 100%
[3]; [25]
  Hemmung des Myzeliums am 5. Tag des Wachstums, Acremonium corvum: 100%
[3]; [26]
  Hemmung des Myzeliums am 5. Tag des Wachstums, Acremonium corvum: 100%
[4]; [23]
  Hemmung des Myzeliums am 5. Tag des Wachstums, Cladosporium resinae: 37,5%
[4]; [24]
  Hemmung des Myzeliums am 5. Tag des Wachstums, Cladosporium resinae: 100%
[4]; [25]
  Hemmung des Myzeliums am 5. Tag des Wachstums, Cladosporium resinae: 100%
[4]; [26]
  Hemmung des Myzeliums am 5. Tag des Wachstums, Cladosporium resinae: 100%
[5]; [23]
  Hemmung des Myzeliums am 5. Tag des Wachstums, Acremonium charticola: 50%
[5]; [24]
  Hemmung des Myzeliums am 5. Tag des Wachstums, Acremonium charticola: 100%
[5]; [25]
  Hemmung des Myzeliums am 5. Tag des Wachstums, Acremonium charticola: 100%
[5]; [26]
  Hemmung des Myzeliums am 5. Tag des Wachstums, Acremonium charticola: 100%
[17]; [23]
  Hemmung des Myzeliums am 5. Tag des Wachstums, Oidium: 80%
[17]; [24]
  Hemmung des Myzeliums am 5. Tag des Wachstums, Oidium: 100%
[17]; [25]
  Hemmung des Myzeliums am 5. Tag des Wachstums, Oidium: 100%
[17]; [26]
  Hemmung des Myzeliums am 5. Tag des Wachstums, Oidium: 100%
[6]; [23]
  Hemmung des Myzeliums am 5. Tag des Wachstums, Walrotiela subiculesa: 52%
[6]; [24]
  Hemmung des Myzeliums am 5. Tag des Wachstums, Walrotiela subiculesa: 100%
[6]; [25]
  Hemmung des Myzeliums am 5. Tag des Wachstums, Walrotiela subiculesa: 100%
[6]; [26]
  Hemmung des Myzeliums am 5. Tag des Wachstums, Walrotiela subiculesa: 100%
[7]; [23]
  Hemmung des Myzeliums am 5. Tag des Wachstums, Penicillium charlesii Smith: 90%
[7]; [24]
  Hemmung des Myzeliums am 5. Tag des Wachstums, Penicillium charlesii Smith: 100%
[7]; [25]
  Hemmung des Myzeliums am 5. Tag des Wachstums, Penicillium charlesii Smith: 100%
[7]; [26]
  Hemmung des Myzeliums am 5. Tag des Wachstums, Penicillium charlesii Smith: 100%
[8]; [23]
  Hemmung des Myzeliums am 5. Tag des Wachstums, Cladosporium cladosporioides: 100%
[8]; [24]
  Hemmung des Myzeliums am 5. Tag des Wachstums, Cladosporium cladosporioides: 100%
[8]; [25]
  Hemmung des Myzeliums am 5. Tag des Wachstums, Cladosporium cladosporioides: 100%
[8]; [26]
  Hemmung des Myzeliums am 5. Tag des Wachstums, Cladosporium cladosporioides: 100%
[9]; [23]
  Hemmung des Myzeliums am 5. Tag des Wachstums, Geotrichum candidum Link: 29%
[9]; [24]
  Hemmung des Myzeliums am 5. Tag des Wachstums, Geotrichum candidum Link: 100%
[9]; [25]
  Hemmung des Myzeliums am 5. Tag des Wachstums, Geotrichum candidum Link: 100%
[9]; [26]
  Hemmung des Myzeliums am 5. Tag des Wachstums, Geotrichum candidum Link: 100%
[10]; [23]
  Hemmung des Myzeliums am 5. Tag des Wachstums, Penicillium chrysogenum: 10%
[10]; [24]
  Hemmung des Myzeliums am 5. Tag des Wachstums, Penicillium chrysogenum: 40%
[10]; [25]
  Hemmung des Myzeliums am 5. Tag des Wachstums, Penicillium chrysogenum: 80%
[10]; [26]
  Hemmung des Myzeliums am 5. Tag des Wachstums, Penicillium chrysogenum: 100%
[11]
  Konzentration der Salze der N-(vinyloxyethyl)dithiocarbaminsäure (100%), die das Wachstum der Bakterien am 5. Tag des Wachstums hemmen, p.Bacillus: 0,05%
[12]
  Konzentration der Salze der N-(vinyloxyethyl)dithiocarbaminsäure (100%), die das Wachstum der Bakterien am 5. Tag des Wachstums hemmen, p.Pseudomonas: 0,05%
[13]
  Konzentration der Salze der N-(vinyloxyethyl)dithiocarbaminsäure (100%), die das Wachstum der Bakterien am 5. Tag des Wachstums hemmen, p. Escherichiae: 0,05%
[14]
  Konzentration der Salze der N-(vinyloxyethyl)dithiocarbaminsäure (100%), die das Wachstum der Bakterien am 5. Tag des Wachstums hemmen, p.Micrococcus: 0,05%
[15]
  Konzentration, bei der die Entwicklung aller untersuchten Pilze vollständig gehemmt wurde: 0,012%
